This passage reports GI50 and TGI results from PubChem BioAssay (NCI).

Holding throughout (test): NCI anticancer screen, dose series, 48 h
Assay [1] relates to A549 NSCLC.
Assay [2] deals with BT-549 breast.
In assay [3] the test system is CCRF-CEM leukemia.
For assay [4], the system named is M14 melanoma.
The test system of assay [5] is MDA-MB-231 breast.
Assay [6] deals with MOLT-4 leukemia.
Assay [7] has as its system NCI-H23 lung.
In assay [8] the test system is NCI/ADR-RES ovarian.
Assay [9] has as its system PC-3 prostate.
The subject of assay [10] is EKVX NSCLC.

The structures appear in SMILES notation. Values joined by “and” are separate entries in the source; they are usually repeats but may differ in a detail not shown here. Identical values can stand only once.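 1) Cells in 96-well plates. 2) Compound, 48 h, 5 concentrations. 3) Linear interpolation between surrounding doses. 4) Unreached endpoint = highest concentration. GI50 = concentration required for 50% inhibition of growth. The concentration for full growth arrest is given as TGI.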

Consider `CN1CCCCC1CCN1c2ccccc2Sc2ccc(Br)cc21` (centres undefined), for which the GI50 in assay [1] was 2.71 µM; in assay [2], 4.17 µM; in [3], 2.77 µM; in assay [4], 1.83 µM; in assay [5], 1.8 µM; in [6], 2.83 µM. Moreover, the GI50 is 4.44 µM in [7], 1.98 µM in assay [8] and 2.81 µM in assay [9]. In addition, the TGI in [1] came out at 8.19 µM; in assay [2] it was 17.7 µM; in assay [3] it was 10.1 µM; in assay [4], 3.34 µM; in assay [5], 4.18 µM; in [6], 7.83 µM. The TGI was 17.1 µM in assay [7], 4.13 µM in assay [8] and 8.76 µM in assay [9].

`COc1cc(C(=O)c2cnc(-c3c[nH]c4cccc(C)c34)[nH]2)cc(OC)c1OC`: the GI50 in assay [1] is 0.0109 µM; in [2], 0.0204 µM; in [3], 0.00824 µM; in assay [10] it was 0.00804 µM; in assay [5], 0.0204 µM; in assay [6], 0.0378 µM. The values for the GI50 in [7], in assay [8] and in assay [9] were 0.0102 µM, 0.0123 µM and 0.00537 µM, respectively. Besides, the TGI in assay [1], in assay [3], in assay [6], in [7] and in [9] was more than 100 µM throughout.

Consider `N[C@@H]1CCCN(c2c(Br)cnc3[nH]cc(NC(=O)C4CC4)c23)C1`, for which the GI50 in [1] is 1.5 µM; in assay [2] it was 0.45 µM; in [3], 0.211 µM; in assay [10], 2.32 µM; in assay [5], 2.91 µM; in assay [6], 0.279 µM. Besides, the GI50 in assay [7] was 0.234 µM; in assay [8], 0.393 µM; in [9] it was 20.3 µM. In addition, the TGI in assay [1] is more than 100 µM; in assay [2] it was 38 µM; in [3], more than 100 µM; in [10], more than 31.6 µM; in assay [5] it was 77.5 µM; in assay [6], more than 100 µM. Besides, the TGI in assay [7] is more than 100 µM; in assay [8] it was more than 70.7 µM; in assay [9], more than 100 µM.

Turning to `O=c1ccc(N=Nc2ccccc2)ccc1O`, the TGI in assay [1] stood at 27.8 µM; in [2] it was 56.6 µM; in assay [10], 81.1 µM; in assay [4], 28.5 µM; in assay [5] it was 36.9 µM; in assay [6] it was 25.1 µM. The TGI is 31.5 µM in [7], 29.6 µM in [8] and 28.6 µM in assay [9].

With `O=C(/C=C/c1ccc(O)c(O)c1)N1CCN(c2ccc(Cl)cc2)CC1`, the GI50 was 5.7 µM in [1]; 5.21 µM in assay [2]; 1.96 µM in assay [3]; 8.98 µM in [4]; 5.28 µM in assay [5]; 3.47 µM in assay [6]. Further, the values for the GI50 in assay [7], in [8] and in assay [9] were 5.21 µM, 4.61 µM and 4.67 µM, respectively. For the same molecule, the TGI was 60.2 µM in [1]; 45.6 µM in assay [2]; 45.1 µM in assay [3]; 47.1 µM in [4]; 35.6 µM in assay [5]; more than 100 µM in [6]. Further, the TGI was 32 µM in assay [7], 32.9 µM in assay [8] and 31.1 µM in assay [9].

`CCCN1C(=O)/C(=C/c2ccc(SC(F)(F)F)cc2)SC1=Nc1ccc(OC)cc1`: the GI50 in [1] was 8.87 µM; in assay [2] it was 45.1 µM; in [10], 16.7 µM; in [4] it was 18.6 µM; in assay [5], 5.93 µM; in assay [6] it was more than 50 µM. Besides, the GI50 was 12.6 µM in [7], 11 µM in assay [8] and 15.6 µM in assay [9]. Moreover, the TGI was 30.1 µM in assay [1]; more than 50 µM in assay [2]; 48.3 µM in [10]; more than 50 µM in assay [4]; 19.5 µM in [5]; more than 50 µM in assay [6]. The TGI in assay [7] was 30.2 µM; in assay [8] it was 42.4 µM; in assay [9], more than 50 µM.

As to `COc1ccc(-c2nsc3c2NC(=O)CC3c2ccsc2)cc1` (centres undefined), the GI50 in assay [1] is 0.211 µM; in [2], 1.28 µM; in assay [3], 0.268 µM; in assay [4] it was 0.167 µM; in assay [5] it was 1.26 µM; in assay [6], 0.514 µM. Also, the GI50 in assay [7] was 0.375 µM; in [8], 0.064 µM; in assay [9] it was 0.334 µM. Also, the TGI in [1] was more than 100 µM; in assay [2], 40.8 µM; in [3], more than 100 µM; in assay [4] it was 23.6 µM; in assay [5], more than 100 µM; in assay [6] it was 24.1 µM. The TGI in [7] was 73.8 µM; in assay [8], 0.278 µM; in assay [9], more than 100 µM.

Take `Cn1c(=O)c(-c2ccccc2Cl)cc2cnc(NC3CCOCC3)nc21`: the GI50 in [1] was 18.2 µM; in assay [2], more than 25 µM; in assay [3] it was 14.8 µM; in assay [4], 5.66 µM; in [5], 7.69 µM; in assay [6], 10.2 µM. Further, the GI50 in assay [7] was 18.3 µM; in [8], 12.9 µM; in assay [9], 21.4 µM. In addition, the TGI in [1], in assay [2], in assay [3], in assay [4], in assay [5] and in [6] was more than 25 µM throughout. The TGI in assay [7], in assay [8] and in [9] was more than 25 µM throughout.

On to `CN(C)CCCN1c2ccccc2Sc2ccc(C(F)(F)F)cc21`, for which the GI50 is 1.89 µM in assay [1]; 1.77 µM in [2]; 1.92 µM in assay [3]; 1.84 µM in assay [10]; 1.45 µM in assay [5]; 1.86 µM in assay [6]. Besides, the GI50 in assay [7] is 1.72 µM; in assay [8] it was 1.66 µM; in assay [9], 1.67 µM. Also, the TGI in assay [1] was 3.83 µM and 31.9 µM and 31.4 µM; in [2] it was 3.32 µM and 26.5 µM; in [3] it was 5 µM and 38.5 µM and 39 µM; in assay [10], 4.75 µM and 35.7 µM and 29.3 µM; in assay [5] it was 2.9 µM and 26.5 µM; in assay [6], 4.19 µM and 39.2 µM. The TGI was 4.12 µM and 31.1 µM and 34.4 µM in [7]; 3.42 µM and 31.1 µM in assay [8]; 4 µM and 28.6 µM in [9].
